From US8975400B2, “2,3-dihydroimidazo[1, 2-c] pyrimidin-5(1 H)-one compounds use as LP-PLA2 inhibitors” (Glaxo Group Limited, priority 2011, dated 2015)
Structures can show the parent of a compound that is named as a salt.

Legend:
[1] = target: T1, recombinant human Lp-PLA2 (Homo sapiens, UniProt Q13093); test: Recombinant human Lp-PLA2 assay (rhLp-PLA2, PED6 assay); type: biochemical; settings: recombinant human Lp-PLA2, PED6 substrate; upper limit for pIC50 in this assay is 9.3
T1 sequence (Q13093 22-441): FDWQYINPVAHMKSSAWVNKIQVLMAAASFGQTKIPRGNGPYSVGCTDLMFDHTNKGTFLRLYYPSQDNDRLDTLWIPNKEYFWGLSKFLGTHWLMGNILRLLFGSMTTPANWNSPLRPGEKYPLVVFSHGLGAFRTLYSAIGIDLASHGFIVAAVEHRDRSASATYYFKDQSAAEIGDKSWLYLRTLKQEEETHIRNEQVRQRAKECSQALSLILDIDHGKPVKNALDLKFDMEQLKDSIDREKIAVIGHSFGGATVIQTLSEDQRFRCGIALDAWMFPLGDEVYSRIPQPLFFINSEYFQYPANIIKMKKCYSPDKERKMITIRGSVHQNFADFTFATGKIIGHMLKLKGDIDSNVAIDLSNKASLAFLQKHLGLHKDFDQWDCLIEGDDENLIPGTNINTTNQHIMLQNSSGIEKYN
Excerpt: (1) Recombinant Human Lp-PLA2 Assay (rhLp-PLA2) (Also Referred to as “PED6” Assay)
N-((6-(2,4-dinitrophenyl)amino)-hexanoyl)-2-(4,4-difluoro-5,7-dimethyl-4-bora-3a,4a-diaza-s-indacene-3-pentanoyl)-1-hexadecanoyl-sn-glycero-3-phosphoethanolamine, triethylammonium salt (PED6) is a commercially available fluorescently-labeled phospholipid, which is commercially available from Invitrogene and Molecular Probes. There is a quenching […] and a Bodipy fluorescein (FL) group in the sn2 position. Upon cleavage with Lp-PLA2, the Bodipy FL group is liberated and then may result in an increase in fluorescence. Inhibitors of Lp-PLA2 therefore prevent this cleavage and no fluorescent increase is observed.
The PED6 assay was run as an unquenched 10 μL assay. The source plate containing the compounds to be tested was prepared by making 1:3 (by volume) serial dilution of the compounds within DMSO on 384-well microplate. Then, 0.01 μL of the compounds on compound source plate were transferred into 384 well Greiner 784076 (black) plates using ECHO liquid dispenser. 5 µL of recombinant human Lp-PLA2 enzyme (4 nM (or 110 pM) rhLp-PLA2 in assay buffer of 50 mM HEPES, pH 7.4, 150 mM NaCl, 1 mM CHAPS) was added to each well of the plate. Plates were centrifuged for 10 sec at 500 rpm. After 30 minutes preincubation, 5 µL of substrate (4 μM (or 5 μM) PED6 [from 5 mM DMSO stock] in assay buffer of 50 mM HEPES, pH 7.4, 150 mM NaCl, 1 mM CHAPS) was added to 384 well Greiner 784076 (black) plates. Plates were centrifuged for 10 sec at 500 rpm. The plate was covered to protect it from light and incubated for 20 min at room temperature. The plates were read for fluorescence intensity at ex: 480/em: 540 using ViewLux microplate imager for Envision spectrofluroimeters pIC50 data, curve and QC analysis was conducted by using XL fit module in Excel.
The compounds described below were tested generally according to the PED6 assay described above.

Lp-PLA2 in human plasma = target: T2, Lp-PLA2 in human plasma (Homo sapiens, UniProt Q13093); test: Lp-PLA2 human plasma assay (Thio-PAF assay); type: biochemical; settings: pooled human plasma, 2-thio-PAF substrate; read-out: pIC50 in the thio-PAF assay (converted)
T2 construct: This assay may detect the activity of Lp-PLA2 in human plasma; from tissue; host or cells: pooled human plasma
T2 sequence (Q13093 22-441): T1 sequence (Q13093 22-441)
Excerpt: (3) Lipoprotein-Associated Phospholipase A2 (Lp-PLA2) Human Plasma Assay (Also Referred to as “Thio-PAF Assay”)
The human plasma assay utilizes a thioester analog of PAF (phosphatidylcholine), where hydrolysis yields to the formation of a phospholipid containing a free thiol group. The amount of thiol is quantitated continuously by reacting with CPM (7-diethylamino-3-(4′-maleimidylphenyl)-4-methylcoumarin), a maleimide which increases in fluoresence after Michael addition of thiols. This assay may detect the activity of Lp-PLA2 in human plasma, as determined by specific inhibition by Lp-PLA2 inhibitors.
The thio-PAF assay was run as a quenched 15 μL assay. Compounds source plate was prepared by making 1:3 (by volume) serial dilution of the compounds into pure DMSO on 384-well microplate. 0.01 μL of compounds on compound source plate were transferred to 384 well Greiner 784076 (black) low-volume plates by ECHO liquid dispenser. 8 μL pooled human plasma, which was previously aliquoted and frozen, was added. Plates were centrifuged for 10 sec at 500 rpm. After 30 minutes preincubation, 2 μL of substrate solution comprising 2.5 mM 2-thio-PAF [from ethanol stock], 32 μM CPM [from a DMSO stock] and 3.2 mM NEM (N-ethylmaleimide) [made fresh daily in DMSO] in assay buffer of 50 mM HEPES, pH 7.4, 150 mM NaCl, 1 mM CHAPS was added to 384 well Greiner 784076 (black) low-volume plates by BRAVO liquid handling station. After 2 mins, reaction was quenched with 5 μL of 5% aqueous trifluoroacetic acid (TFA). Plates were covered to protect from light and incubated for 40 min at room temperature. Plates were read at ex: 380/em: 485 using-Envision microplate reader. pIC50 data, curve and QC analysis was conducted by using XLFit module in Excel.

| SMILES | IC50 [1] [nM] | IC50 (Lp-PLA2 in human plasma) [nM] |
| --- | --- | --- |
| CN1CCn2c1cc(OCc1ccc(Oc3cc(C#N)cc(C(F)(F)F)c3)c(F)c1)nc2=O [Example 150, 3-(2-fluoro-4-(((1-methyl-5-oxo-1,2,3,5-tetrahydroimidazo[1,2-c]pyrimidin-7-yl)oxy)methyl)phenoxy)-5-(trifluoromethyl)benzonitrile, trifluoroacetic acid salt] | ≤ 10 | ≤ 100 |
| CN1CCn2c1cc(OCc1ccc(Oc3cc(F)cc(C(F)(F)F)c3)c(C#N)c1)nc2=O [Example 116] | ≤ 1 | ≤ 100 |
| CN1CCn2c1cc(OCc1ccc(Oc3ccnc(Cl)c3)c(F)c1)nc2=O [Example 109, 7-((4-((2-chloropyridin-4-yl)oxy)-3-fluorobenzyl)oxy)-1-methyl-2,3-dihydroimidaz-o[1,2-c]pyrimidin-5(1H)-one] | ≤ 10 | ≤ 1000 |
| CN1CCn2c1cc(OCc1ccc(Oc3ccc(Cl)nc3)c(C#N)c1)nc2=O [Example 100, 2-((6-chloropyridin-3-yl)oxy)-5-(((1-methyl-5-oxo-1,2,3,5-tetrahydroimidazo[1,2-c]pyrimidin-7-yl)oxy)methyl)benzonitrile] | ≤ 10 | ≤ 1000 |
| CN1CCn2c1cc(OCc1cc(F)c(Oc3ccc(F)c(Cl)c3)c(F)c1)nc2=O [Example E87, 7-((4-(3-chloro-4-fluorophenoxy)-3,5-difluorobenzyl)oxy)-1-methyl-2,3-dihydroimidazo[1,2-c]pyrimidin-5(1H)-one] | ≤ 1 | ≤ 100 |
| CN1CCn2c1cc(OCc1cc(F)c(Oc3ccc(C#N)c(C(F)(F)F)c3)c(F)c1)nc2=O [Example 144, 4-(2,6-difluoro-4-(((1-methyl-5-oxo-1,2,3,5-tetrahydroimidazo[1,2-c]pyrimidin-7-yl)oxy)methyl)phenoxy)-2-(trifluoromethyl)benzonitrile] | < 0.501 | ≤ 100 |
| CN1CCn2c1cc(OCc1ccc(Oc3ccc(C#N)c(F)c3)c(F)c1)nc2=O [Example 136, 2-fluoro-4-(2-fluoro-4-(((1-methyl-5-oxo-1,2,3,5-tetrahydroimidazo[1,2-c]pyrimidin-7-yl)oxy)methyl)phenoxy)benzonitrile] | ≤ 10 | ≤ 1000 |
| CN1CCn2c1cc(OCc1ccc(Oc3cncc(C(F)(F)F)c3)c(F)c1)nc2=O [Example 126, 7-((3-fluoro-4-((5-(trifluoromethyl)pyridin-3-yl)oxy)benzyl)oxy)-1-methyl-2,3-dihydroimidazo[1,2-c]pyrimidin-5(1H)-one] | ≤ 10 | ≤ 100 |
| CN1CCn2c1cc(OCc1cc(F)c(Oc3ccc(F)c(F)c3)c(F)c1)nc2=O [Example E75, 7-((4-(3,4-difluorophenoxy)-3,5-difluorobenzyl)oxy)-1-methyl-2,3-dihydroimida-zo[1,2-c]pyrimidin-5(1H)-one] | ≤ 10 | ≤ 1000 |
| CC(C)N1CCn2c1cc(OCc1ccc(Oc3cccc(C(F)(F)F)c3)c(C#N)c1)nc2=O [Example E51, 5-(((1-isopropyl-5-oxo-1,2,3,5-tetrahydroimidazo[1,2-c]pyrimidin-7-yl)oxy)methy)-2-(3-(trifluoromethyl)phenoxy)benzonitrile, trifluoroacetic acid salt] | ≤ 1 | ≤ 100 |
| Cc1cc(Oc2ccc(COc3cc4n(c(=O)n3)CCN4C)cc2F)ccc1C#N [Example 149, 4-(2-fluoro-4-(((1-methyl-5-oxo-1,2,3,5-tetrahydroimidazo[1,2-c]pyrimidin-7-yl)oxy)methyl)phenoxy)-2-methylbenzonitrile] | ≤ 10 | ≤ 1000 |
| O=c1nc(OCc2ccc(Oc3ccc(Cl)c(C(F)(F)F)c3)cc2)cc2n1CCN2 [Example 89, 7-((4-(4-chloro-3-(trifluoromethyl)phenoxy)benzyl)oxy)-2,3-dihydroimidazo[1,2-c]pyrimidin-5(1H)-one] | ≤ 10 | ≤ 1000 |
| CN1CCn2c1cc(OCc1cc(F)c(Oc3cncc(C(F)(F)F)c3)c(F)c1)nc2=O [Example 147, 7-((3,5-difluoro-4-((5-(trifluoromethyl)pyridin-3-yl)oxy)benzyl)oxy)-1-methyl-2,3-dihydroimidazo[1,2-c]pyrimidin-5(1H)-one] | 1 | ≤ 100 |
| CN1CCn2c1cc(OCc1ccc(Oc3ccc(F)c(C(F)(F)F)c3)c(C#N)c1)nc2=O [Example E44, 2-(4-fluoro-3-(trifluoromethyl)phenoxy)-5-(((1-methyl-5-oxo-1,2,3,5-tetrahydroi-midazo[1,2-c]pyrimidin-7-yl)oxy)methyl)benzonitrile, trifluoroacetic acid salt] | < 0.501 | ≤ 100 |
| CN1CCn2c1cc(OCc1ccc(Oc3ccc(C#N)c(F)c3)c(C#N)c1)nc2=O [Example 95, 4-(2-cyano-4-(((1-methyl-5-oxo-1,2,3,5-tetrahydroimidazo[1,2-c]pyrimidin-7-yl)oxy)methyl)phenoxy)-2-fluorobenzonitrile] | 1.26 | ≤ 100 |
| CN1CCn2c1cc(OCc1ccc(Oc3cc(F)c(F)c(F)c3)c(F)c1)nc2=O [Example E42, 7-((3-fluoro-4-(3,4,5-trifluorophenoxy)benzyl)oxy)-1-methyl-2,3-dihydroimi-dazo[1,2-c]pyrimidin-5(1H)-one] | ≤ 10 | ≤ 1000 |
| CN1CCn2c1cc(OCc1ccc(Oc3cccc(F)c3)c(C#N)c1)nc2=O [Example E18, 2-(3-fluorophenoxy)-5-(((1-methyl-5-oxo-1,2,3,5-tetrahydroimidazo[1,2-c]pyrimidin-7-yl)oxy)methyl)benzonitrile] | ≤ 10 | ≤ 1000 |
| CN1CCn2c1cc(OCc1ccc(Oc3ccc(C#N)c(Cl)c3)c(F)c1)nc2=O [Example 128, 2-chloro-4-(2-fluoro-4-(((1-methyl-5-oxo-1,2,3,5-tetrahydroimidazo[1,2-c]pyrimidin-7-yl)oxy)methyl)phenoxy)benzonitrile] | ≤ 1 | ≤ 100 |
| CN1CCn2c1cc(OCc1ccc(Oc3cncc(C(F)(F)F)c3)c(C#N)c1)nc2=O [Example 115, 5-(((1-methyl-5-oxo-1,2,3,5-tetrahydroimidazo[1,2-c]pyrimidin-7-yl)oxy)methyl)-2-((5-(trifluoromethyl)pyridin-3-yl)oxy)benzonitrile, trifluoroacetic acid salt] | 3.98 | ≤ 100 |
| N#Cc1cc(COc2cc3n(c(=O)n2)CCN3)ccc1Oc1cccc(C(F)(F)F)c1 [Example 112, 5-(((5-oxo-1,2,3,5-tetrahydroimidazo[1,2-c]pyrimidin-7-yl)oxy)methyl)-2-(3-(trifluoromethyl)phenoxy)benzonitrile] | ≤ 10 | – |
